Source: paper PMC12131194, “Rational design, synthesis, and evaluation of novel polypharmacological compounds targeting NaV1.5, KV1.5, and K2P channels for atrial fibrillation” (The Journal of Biological Chemistry, 2025)
Where “and” joins values, the source holds several entries; their conditions need not be identical. Identical values can stand only once.

Legend:
HEK-293 cells = experiment: MTT cytotoxicity assay; assay type: cell-based, human
Protocol: Another method used to assess cytotoxicity was the MTT assay on HEK293 cells. Initially, the cells were seeded at 3000 cells per well in a 96-well plate. After 24 h, they were exposed to increasing compound concentrations (1, 5, 10, 25, 50, 100, 250 and 500 μM) for 72 h. The cells cultured in a medium supplemented with 10% FBS were the positive control for cell viability. Each condition was evaluated triplicate in independent experiments. The ROCHE Cell Proliferation Kit I, MTT (Cat. no. 11465007001), was used, following the manufacturer's indications. Briefly, 10 μl of the labeling reagent was added, and the plates were incubated at 37 °C for 4 h. Subsequently, 100 μl of solubilization solution was added to each well, and the plates were incubated overnight in the dark. Finally, optical density was measured at 570 nm using a microplate reader (Thermo Fisher Scientific). The optical density measurements were used to calculate cell viability, normalizing the data to the positive control. Results were expressed as a percentage of cell viability relative to this control. The IC50 value was determined by fitting a dose-response curve using a nonlinear regression model with a four-parameter logistic equation. The experimental data analysis was performed using SigmaPlot version 12.0 (Systat Software Inc).

human TASK-1 = human TASK-1 (Homo sapiens, UniProt O14649); experiment: TEVC recordings in X. laevis oocytes, TASK-1; assay type: cell-based; set-up: human TASK-1 (KCNK3, NM_002246); expressed in transfected cells; host or cells: Xenopus laevis oocytes injected with cRNA; settings: for Ionic current block IK2P: from inhibition curves, used for simulation
human TASK-1, sequence (O14649 whole entry): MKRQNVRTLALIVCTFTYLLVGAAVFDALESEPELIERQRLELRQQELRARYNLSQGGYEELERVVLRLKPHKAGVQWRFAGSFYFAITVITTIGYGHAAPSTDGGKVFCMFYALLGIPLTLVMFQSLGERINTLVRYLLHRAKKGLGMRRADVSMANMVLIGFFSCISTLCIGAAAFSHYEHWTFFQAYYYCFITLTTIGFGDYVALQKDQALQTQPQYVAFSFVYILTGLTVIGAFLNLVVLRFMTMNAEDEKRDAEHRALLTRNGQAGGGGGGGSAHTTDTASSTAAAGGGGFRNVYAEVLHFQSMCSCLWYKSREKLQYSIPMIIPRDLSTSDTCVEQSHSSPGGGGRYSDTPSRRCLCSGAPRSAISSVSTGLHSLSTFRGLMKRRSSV
Protocol: The two-electrode voltage clamp (TEVC) technique was used for electrophysiology tests. Channels were expressed in Xenopus laevis oocytes. The initial channel-blocking potential was assessed at 100 μM for the 10 synthesized compounds on TASK-1 and KV1.5 channels.
To obtain X. laevis oocytes, the frogs were anesthetized with 2 g/L of tricaine methanesulfonate, and the ovarian lobes were mechanically separated with forceps. The oocytes were incubated for 120 min in an OR2 solution containing in mM: NaCl 82.5, KCl 2, MgCl2 1, HEPES 5 (pH 7.5) supplemented with 2 mg/ml of collagenase II (Sigma) to remove residual connective tissue and obtain individual oocytes. Subsequently, the oocytes were washed with a ND96 solution containing in mM: NaCl 96, KCl 2, CaCl2 1.8, MgCl2 1, HEPES 5 (pH 7.5, adjusted with NaOH) and stored at 18 °C in ND96 solution supplemented with 1 ml of gentamicin (50 mg/L), sodium pyruvate (275 mg/L) and (90 mg/L) theophylline (inhibits further oocyte maturation) before and after RNA injection.
In order to overexpress the channel in the oocyte, each of the channels to be measured was subcloned (complementary DNA (cDNA); human TASK-1 (KCNK3, NM_002246), h KV1.5 (KCNA5, NM_002234), h NaV1.5 (hH1, M77235), TASK-4/TALK-2 (KCNK17, NM_AF358910), TREK-1 (KCNK2, AF004711) and Kir2.1 (KCNJ2, NM_017296) into pSGEM, pBF1 or pSP64 expression vector, and the cDNA was linearized with NheI or MluI. Complementary RNA (cRNA) was synthesized with the mMESSAGE mMACHINE-Kit (Ambion). The quality of the cRNA was tested on an agarose gel by electrophoresis. cRNA was quantified using a UV-Vis spectrophotometer (NanoDrop 2000). Subsequently, the channel was transfected in the oocytes in stages V and VI, for which […] (TASK-1, KV1.5 or TREK-1), 10 ng (NaV1.5 or TASK-4) o 2.5 ng (Kir2.1) per oocyte of cRNA was injected with a NanojectII microinjector (Drummond Scientific). The oocytes were stored in 24-well plates for 24 to 48 h at 18 °C. After this time, the overexpression of each channel was monitored through electrophysiology.
Two-electrode voltage clamp measurements were performed 24 or 48 h after cRNA injection at room temperature (20–22 °C) in ND96 recording solution with a TurboTEC-10CD (npi) amplifier and a Digidata 1550B (for TASK-1 and KV1.5) and 1440A (for NaV1.5) A/D converter from Axon Instruments. Micropipettes were fabricated from GB 150 TF-8P borosilicate glass capillaries (Science Products) elongated in a DMZ-Universal Puller (Zeitz, Germany). […] ND96 was used as bath solution. Data acquisition was performed using Clampex 10 software (Axon Instruments), and data were analyzed with ClampFit 10 (Axon Instruments) and Origin 7 (Origin Lab Corporation).
For compound inhibition testing, from a holding potential of −80 mV a first test pulse to 0 mV of 1 s duration was followed by a repolarization step at −80 mV for 1 s, directly followed by another 1 s test pulse at +40 mV. The sweep time interval was 10 s for KV1.5 and TASK-1 channels. For the NaV1.5 channel, the block was analyzed with voltage steps from a holding potential of −80 mV. A first depolarizing pulse to −30 mV of 50 ms duration was applied, followed by a 5 ms step to −80 mV. The sweep time interval was 5 s. The compounds were applied at different concentrations to determine the half-maximal inhibitory concentration (IC50), using a fit to the Hill equation.
To test for a putative voltage-dependence of the block by the compound 6f in KV1.5, a 1.5 s voltage step protocol from −80 to +80 mV with +20 mV increments was used. The holding potential was −80 mV and the sweep time interval was 10 s. Currents were analyzed at the end of the voltage pulse. For TASK-1, voltage-dependence of block was probed using a high-potassium solution (KD96) containing in mM: KCl 96, NaCl 2, CaCl2 1.8, MgCl2 1, HEPES 5, (pH 7.5, adjusted with KOH). From a holding potential of 0 mV, voltage was stepped from −80 mV to +80 mV for 1.5 s in +20 mV steps every 10 s. […]

Compound: CCCCN(CCCC)CC(=O)Nc1ccc(OC)cc1OC [Compound 6f, 2-(dibutylamine)-N-(2,4-dimethoxiphenyl)acetamide]
- Concentrations with significant cytotoxic effects (MTT) (HEK-293 cells; 72 h): higher than 129 μM
- IC50 (HEK-293 cells; Homo sapiens, HEK293, 72 h, read-out: IC50 cell viability (MTT)): 130 µM
- Ionic current block IK2P (human TASK-1; 1 μM): 58%
- Ionic current block IK2P (human TASK-1; 10 μM): 75%
- inhibition at 100 µM (human TASK-1; 100 μM, +40 mV, oocytes, mean ± SD): 84.1 ± 10.7%
- Ionic current block IK2P (human TASK-1; 100 μM): 85%
- IC50 (human TASK-1; X. laevis oocytes, TEVC, block at +40 mV): ~310 nM and 310 nM
- Voltage-dependence of block of TASK-1 (human TASK-1; oocytes, KD96 solution): no significant voltage-dependence
